Source: the NIST ThermoML archive (doi:10.1021/je0499420)
± gives the expanded uncertainty stated by the source.

What was measured:
[1] = Liquid; for Critical pressure: Direct measurement; for Critical temperature: Visual observation in an unstirred cell
[2] = xn = mol fraction of the nth substance listed; settings: Liquid

Question: With FC(F)C(F)C(F)(F)F (stereo not drawn) [1,1,1,2,3,3-hexafluoropropane] as the compound, how does the Critical density [1] read?
Answer: The Critical density was 562 ± 13 kg/m3.

Question: And the Critical pressure [1]?
Answer: The Critical pressure was 3416 ± 12 kPa.

Question: And the Critical temperature [1]?
Answer: The Critical temperature was 412.41 ± 0.16 K.

Question: For FC(F)C(F)(F)F [pentafluoroethane] + COC(F)(F)C(F)(F)F, which Critical density ([2]; x2 = 0) is on record?
Answer: The Critical density was 560 ± 13 kg/m3.

Question: Which results are given for COC(F)(F)C(F)(F)F [methyl pentafluoroethyl ether] + FC(F)C(F)(F)F?
Answer: Critical density ([2]; x1 = 0.1408): 551 ± 13 kg/m3; Critical density ([2]; x1 = 0.2438): 543 ± 13 kg/m3; Critical density ([2]; x1 = 0.4346): 540 ± 13 kg/m3; Critical density ([2]; x1 = 0.5897): 536 ± 12 kg/m3; Critical density ([2]; x1 = 0.7753): 521 ± 12 kg/m3; Critical density ([2]; x1 = 1): 491 ± 11 kg/m3

Question: With FC(C(F)(F)F)C(F)(F)F [1,1,1,2,3,3,3-heptafluoropropane] as the compound, how does the Critical density [1] read?
Answer: Its Critical density is 598 ± 14 kg/m3.

Question: What about the Critical pressure [1] of the same compound?
Answer: Its Critical pressure is 2930 ± 12 kPa.

Question: What about the Critical temperature [1] of the same compound?
Answer: Its Critical temperature is 375 ± 0.16 K.

Question: With COC(F)(F)C(F)(F)F [methyl pentafluoroethyl ether] + FCC(F)(F)F as the compound, how does the Critical density ([2]; x1 = 0.1167) read?
Answer: The Critical density was 508 ± 12 kg/m3.

Question: And the Critical density ([2]; x1 = 0.2446)?
Answer: The Critical density was 512 ± 12 kg/m3.

Question: And the Critical density ([2]; x1 = 0.4299)?
Answer: Its Critical density is 509 ± 12 kg/m3.

Question: And the Critical density ([2]; x1 = 0.5886)?
Answer: Its Critical density is 506 ± 12 kg/m3.

Question: And the Critical density ([2]; x1 = 0.7674)?
Answer: The Critical density was 503 ± 12 kg/m3.

Question: And the Critical density ([2]; x1 = 1)?
Answer: Its Critical density is 491 ± 11 kg/m3.

Question: With FC(F)C(F)(F)F [pentafluoroethane] as the compound, how does the Critical density [1] read?
Answer: Its Critical density is 560 ± 13 kg/m3.

Question: And the Critical pressure [1]?
Answer: Its Critical pressure is 3617 ± 12 kPa.

Question: What about the Critical temperature [1] of the same compound?
Answer: Its Critical temperature is 339.2 ± 0.16 K.

Question: With FCC(F)(F)F [1,1,1,2-tetrafluoroethane] as the compound, how does the Critical density [1] read?
Answer: The Critical density was 508 ± 12 kg/m3.

Question: What about the Critical pressure [1] of the same compound?
Answer: Its Critical pressure is 4053 ± 12 kPa.

Question: What about the Critical temperature [1] of the same compound?
Answer: Its Critical temperature is 374.13 ± 0.16 K.

Question: Which Critical density ([2]; x2 = 0) does the source give for FC(F)C(F)C(F)(F)F (stereo not drawn) [1,1,1,2,3,3-hexafluoropropane] + COC(F)(F)C(F)(F)F here?
Answer: The Critical density was 562 ± 13 kg/m3.

Question: What about the Critical density ([2]; x2 = 0.1546) of the same compound?
Answer: Its Critical density is 550 ± 13 kg/m3.

Question: What about the Critical density ([2]; x2 = 0.3124) of the same compound?
Answer: Its Critical density is 535 ± 12 kg/m3.

Question: And the Critical density ([2]; x2 = 0.4485)?
Answer: Its Critical density is 534 ± 12 kg/m3.

Question: What about the Critical density ([2]; x2 = 0.6388) of the same compound?
Answer: The Critical density was 520 ± 12 kg/m3.

Question: And the Critical density ([2]; x2 = 0.7888)?
Answer: The Critical density was 506 ± 12 kg/m3.

Question: For COC(F)(F)C(F)(F)F [methyl pentafluoroethyl ether], which Critical density [1] is on record?
Answer: The Critical density was 491 ± 11 kg/m3.

Question: What about the Critical pressure [1] of the same compound?
Answer: Its Critical pressure is 2885 ± 12 kPa.

Question: What about the Critical temperature [1] of the same compound?
Answer: The Critical temperature was 406.82 ± 0.16 K.

Question: Which Critical density ([2]; x1 = 1) does the source give for COC(F)(F)C(F)(F)F [methyl pentafluoroethyl ether] + FC(F)C(F)C(F)(F)F here?
Answer: The Critical density was 491 ± 11 kg/m3.

Question: With FCC(F)(F)F [1,1,1,2-tetrafluoroethane] + COC(F)(F)C(F)(F)F as the compound, how does the Critical density ([2]; x2 = 0) read?
Answer: Its Critical density is 508 ± 12 kg/m3.

Question: With FC(C(F)(F)F)C(F)(F)F [1,1,1,2,3,3,3-heptafluoropropane] + COC(F)(F)C(F)(F)F as the compound, how does the Critical density ([2]; x2 = 0) read?
Answer: Its Critical density is 598 ± 14 kg/m3.

Question: Which Critical density ([2]; x1 = 0.1823) does the source give for COC(F)(F)C(F)(F)F [methyl pentafluoroethyl ether] + FC(C(F)(F)F)C(F)(F)F here?
Answer: Its Critical density is 584 ± 14 kg/m3.

Question: What about the Critical density ([2]; x1 = 0.306) of the same compound?
Answer: The Critical density was 558 ± 13 kg/m3.

Question: What about the Critical density ([2]; x1 = 0.4769) of the same compound?
Answer: The Critical density was 545 ± 13 kg/m3.

Question: What about the Critical density ([2]; x1 = 0.6944) of the same compound?
Answer: Its Critical density is 531 ± 12 kg/m3.

Question: What about the Critical density ([2]; x1 = 0.8132) of the same compound?
Answer: The Critical density was 519 ± 12 kg/m3.

Question: What about the Critical density ([2]; x1 = 1) of the same compound?
Answer: Its Critical density is 491 ± 11 kg/m3.
